Like-named read-outs stand apart in the source and are kept apart here.
What was measured:
Format in all cases: cell-based
[1] = tested on: Adipocytes (method: 3T3-L1 adherent cells); assay: Calcein-AM cytotoxicity / cell viability assay
Method: Cytotoxicity Assay in Adherent Cells (3T3-L1) using the Calcein-AM Method:
[…] […] […] Then, the wells were washed and the cells incubated with Calcein-AM (1 μM) (Molecular Probes) for 30 min. Then the fluorescence of viable cells was detected in a microtitre plate reader (TECAN Genius Pro). Using this method the uptake of Calcein-AM by viable cells is measured. Calcein-AM his hydrolysed by cellular esterases and then the fluorescence emitted by calcein is detected in the plate reader (excitation: 490 nm, emission: 515 nm)
[…] In this type of assay the higher RFU (relative fluorescent unit) correspond to viable cells.

[2] = tested on: Primary human preadipocytes; assay: LDH release cytotoxicity assay (CytoTox-ONE) in undifferentiated preadipocytes
Method: (§1) Primary human preadipocytes were obtained from Promocell (Heidelberg, Germany). The Order No is C-12731 and the Lot-No 5112201 (abdomen, person).
Human preadipocytes cells were maintained in Preadipocyte Growth Medium (DMEM; BioWhitaker Cat: BE12-604F/U1; Lot N° 6MB0130 containing 10% heat-inactivated FCS and 1% penicillin-streptomycin) at 37° C. in a humidified atmosphere of 5% CO2. The cells were expanded in several T75 flasks to reach 60-80% confluence. To differentiate the preadipocytes (10^4 cells/well) were grown in 96 well plates to reach confluence. At this point (day 0), cells were switched to differentiation medium (DMEM, 10% FBS, 0.25 μM dexamethasone, 0.25 mM IBMX, and […] insulin) for 3 days, with one medium change in between. On day 3, the dexamethasone and IBMX was removed leaving insulin on the cells for an additional 4 days, changing the medium every 2 days. Thereafter, the cells were maintained in the original propagation DMEM, changing medium every 2-3 days until use. Plates where cells are >75% differentiated were used for experiments (day 10 post-induction). […]
Cytotoxicity assays: The CytoTox-ONE™ Homogeneous Membrane Integrity Assay from Promega was used to study LDH release (The Lot-No 234242/27/09/08). Differentiated adipocytes were treated with the test compounds for either 24 or 48 hours and the release of LDH detected using the fluorimetric assay CytoTox-ONE (see above) according to the manufacturer's instructions. Maximum LDH release was determined by complete lysis of cells using 0.1% Triton X-100. […] The fluorescence was detected in a Genius Pro apparatus using specific 96 microwells plates for fluorescence. […]
(§2) The percentages cytotoxicity by LDH release were calculated according to the manufacturer's instruction (http://www.promega.com/tbs/tb306/tb306.pdf)
(§3) According to this calculation the spontaneous release in untreated cells may indicate some cytotoxicity in untreated cells. […] This type of calculation may induce to misinterpretations and therefore the specific cytotoxicity was calculated according to the following formula: […]

[3] = tested on: differentiated human primary adipocytes; assay: LDH release cytotoxicity assay (CytoTox-ONE) in differentiated adipocytes
Method: as §1
Human preadipocytes cells were maintained in Preadipocyte Growth Medium (DMEM; BioWhitaker Cat: BE12-604F/U1; Lot N° 6MB0130 containing 10% heat-inactivated FCS and 1% penicillin-streptomycin) at 37° C. in a humidified atmosphere of 5% CO2. The cells were expanded in several T75 flasks to reach 60-80% confluence. To differentiate the preadipocytes (10^4 cells/well) were grown in 96 well plates to reach confluence. At this point (day 0), cells were switched to differentiation medium (DMEM, 10% FBS, 0.25 μM dexamethasone, 0.25 mM IBMX, and […] insulin) for 3 days, with one medium change in between. On day 3, the dexamethasone and IBMX was removed leaving insulin on the cells for an additional 4 days, changing the medium every 2 days. Thereafter, the cells were maintained in the original propagation DMEM, changing medium every 2-3 days until use. Plates where cells are >75% differentiated were used for experiments (day 10 post-induction). Adipocytes are round and full of easily distinguishable fat globules after 7 days of culture.
Cytotoxicity assays: The CytoTox-ONE™ Homogeneous Membrane Integrity Assay from Promega was used to study LDH release (The Lot-No 234242/27/09/08). Differentiated adipocytes were treated with the test compounds for either 24 or 48 hours and the release of LDH detected using the fluorimetric assay CytoTox-ONE (see above) according to the manufacturer's instructions. Maximum LDH release was determined by complete lysis of cells using 0.1% Triton X-100. Control cells treated with water alone were used to determine the baseline level of LDH release (0% cell death). The fluorescence was detected in a Genius Pro apparatus using specific 96 microwells plates for fluorescence. We used excitation filters in the 530-570 nm range and emission filters in the 580-620 nm range.
as §2, §3
S.C. values below 0% were considered arbitrary as 0% of substance-induced cytotoxicity.
To confirm the cytotoxic activity of the test substance at certain concentrations, undifferentiated (24 h treatment) and differentiated human primary adipocytes the cultures were treated with the indicated dilutions during 24 h and 48 h and the release of LDH measured in the supernatants.

[4] = Table 2, dilution 1:12800, 24 h

Compound: CCCCCCCCCCCCOS(=O)(=O)[O-].[Na+] [sodium laurylsulfate]
- potency compared with the other inventive substances ([1]; cytotoxicity on adipocytes): even more potent
- Adipocytes (Calcein-AM) 6 h, toxicity ([1]; dilution 1:4000): Toxic
- Adipocytes (Calcein-AM) 24 h, toxicity ([1]; dilution 1:4000): Toxic
- Adipocytes (Calcein-AM) 6 h, toxicity ([1]; dilution 1:16,000): Toxic
- Adipocytes (Calcein-AM) 24 h, toxicity ([1]; dilution 1:16,000): Toxic
- Adipocytes (Calcein-AM) 6 h, toxicity ([1]; dilution 1:512000): Non-Toxic
- Adipocytes (Calcein-AM) 24 h, toxicity ([1]; dilution 1:512000): Non-Toxic

Compound: polyethoxylated castor oil [Test Substance 2]
- Preadipocytes (LDH) 24 h, cytotoxicity ([2]; dilution 1:512, 24 h treatment): Toxic (32.6%)
- Preadipocytes (LDH) 24 h, toxicity ([2]; dilution 1:10000, 24 h treatment): Non-toxic
- Differentiated Adipocytes (LDH) 24 h, cytotoxicity ([3]; Table 1, dilution 1:512, 24 h): Toxic (56.1%)
- Differentiated Adipocytes (LDH) 24 h, toxicity ([3]; Table 1, dilution 1:10000, 24 h): Non-toxic
- Adipocytes (LDH) 24 h, toxicity ([3]; Table 2, dilution 1:50, 24 h): Toxic
- Adipocytes (LDH) 24 h, toxicity ([3]; Table 2, dilution 1:100, 24 h): Toxic
- Adipocytes (LDH) 24 h, toxicity ([3]; Table 2, dilution 1:200, 24 h): Toxic
- Adipocytes (LDH) 24 h, cytotoxicity ([3]; Table 2, dilution 1:400, 24 h): Toxic (43.6%)
- Adipocytes (LDH) 24 h, toxicity ([3]; Table 2, dilution 1:800, 24 h): Non-toxic
- Adipocytes (LDH) 24 h, toxicity ([3]; Table 2, dilution 1:1600, 24 h): Non-toxic
- Adipocytes (LDH) 24 h, toxicity ([3]; Table 2, dilution 1:3200, 24 h): Non-toxic
- Adipocytes (LDH) 24 h, toxicity ([3]; Table 2, dilution 1:6400, 24 h): Non-toxic
- Adipocytes (LDH) 24 h, toxicity [3, 4]: Non-toxic
- Differentiated Adipocytes (LDH) 48 h, cytotoxicity ([3]; dilution 1:512, 48 h): Toxic (100%)
- Differentiated Adipocytes (LDH) 48 h, cytotoxicity ([3]; dilution 1:10000, 48 h): toxic (20.3%)
- Adipocytes (Calcein-AM) 24 h, toxicity ([1]; dilution 1:50): Toxic
- Adipocytes (Calcein-AM) 24 h, toxicity ([1]; dilution 1:100): Toxic
- Adipocytes (Calcein-AM) 24 h, toxicity ([1]; dilution 1:200): Toxic
- Adipocytes (Calcein-AM) 24 h, toxicity ([1]; dilution 1:400): Toxic
- Adipocytes (Calcein-AM) 24 h, toxicity ([1]; dilution 1:6400): Non-toxic
- Adipocytes (Calcein-AM) 24 h, toxicity ([1]; dilution 1:12800): Non-toxic

Compound: polysorbate 80 [Test Substance 1]
- Preadipocytes (LDH) 24 h, cytotoxicity [2]: Toxic (38.1%)
- Differentiated Adipocytes (LDH) 24 h, cytotoxicity [3]: Toxic (42.8%)
- Differentiated Adipocytes (LDH) 48 h, cytotoxicity [3]: Toxic (100%)
- Adipocytes (LDH) 24 h, toxicity ([3]; Table 2, dilution 1:50, 24 h): Toxic
- Adipocytes (LDH) 24 h, toxicity ([3]; Table 2, dilution 1:100, 24 h): Toxic
- Adipocytes (LDH) 24 h, toxicity ([3]; Table 2, dilution 1:200, 24 h): Toxic
- Adipocytes (LDH) 24 h, toxicity ([3]; Table 2, dilution 1:400, 24 h): Toxic
- Adipocytes (LDH) 24 h, toxicity ([3]; Table 2, dilution 1:800, 24 h): Toxic
- Adipocytes (LDH) 24 h, toxicity ([3]; Table 2, dilution 1:1600, 24 h): Non-toxic
- Adipocytes (LDH) 24 h, toxicity ([3]; Table 2, dilution 1:3200, 24 h): Non-toxic
- Adipocytes (LDH) 24 h, toxicity ([3]; Table 2, dilution 1:6400, 24 h): Non-toxic
- Adipocytes (LDH) 24 h, toxicity [3, 4]: Non-toxic
- Adipocytes (Calcein-AM) 24 h, toxicity ([1]; dilution 1:50): Toxic
- Adipocytes (Calcein-AM) 24 h, toxicity ([1]; dilution 1:100): Toxic
- Adipocytes (Calcein-AM) 24 h, toxicity ([1]; dilution 1:200): Toxic
- Adipocytes (Calcein-AM) 24 h, toxicity ([1]; dilution 1:400): Toxic
- Adipocytes (Calcein-AM) 24 h, toxicity ([1]; dilution 1:800): Toxic
- Adipocytes (Calcein-AM) 24 h, toxicity ([1]; dilution 1:3200): Non-toxic
- Adipocytes (Calcein-AM) 24 h, toxicity ([1]; dilution 1:6400): Non-toxic
- Adipocytes (Calcein-AM) 24 h, toxicity ([1]; dilution 1:12800): Non-toxic

— patent publication US20100144890A1, “USE OF A SURFACTANT FOR THE PREPARATION OF A FORMULATION FOR THE TREATMENT OF ADIPOSE DISEASES” (priority 2007, published 2010)
